Results taken from the kinase profiling compilation of Christmann-Franck et al. (2016).

What was measured:
Assay in all cases: radiometric filter-binding kinase assay, Kinaseprofiler
[1] = tested on: AKT3 (human), Q9Y243 [S472D]; conditions: compound 1.0 µM; ATP 45 µM
[2] = tested on: BRSK2 (human), Q8IWQ3 [S251I]; conditions: compound 1.0 µM; ATP 70 µM
CAMK1 (human) = CAMK1 (human) (UniProt Q14012); conditions: compound 1.0 µM; ATP 200 µM
CDK5 CDK5R1 p35 (human) = CDK5 CDK5R1 p35 (human) (UniProt Q00535+Q15078); conditions: compound 1.0 µM; ATP 15 µM
CDK7 CCNH MNAT1 (human) = CDK7 CCNH MNAT1 (human) (UniProt P50613+P51948+P51946); conditions: compound 1.0 µM; ATP 90 µM
CHEK2 (human) = CHEK2 (human) (UniProt O96017); conditions: compound 1.0 µM; ATP 70 µM
DAPK1 (human) = DAPK1 (human) (UniProt P53355); conditions: compound 1.0 µM; ATP 70 µM
EPHA1 (human) = EPHA1 (human) (UniProt P21709); conditions: compound 1.0 µM; ATP 45 µM
EPHA2 (human) = EPHA2 (human) (UniProt P29317); conditions: compound 1.0 µM; ATP 155 µM
EPHA3 (human) = EPHA3 (human) (UniProt P29320); conditions: compound 1.0 µM; ATP 120 µM
Sequence of EPHA3 (human) (P29320 whole entry, looked up): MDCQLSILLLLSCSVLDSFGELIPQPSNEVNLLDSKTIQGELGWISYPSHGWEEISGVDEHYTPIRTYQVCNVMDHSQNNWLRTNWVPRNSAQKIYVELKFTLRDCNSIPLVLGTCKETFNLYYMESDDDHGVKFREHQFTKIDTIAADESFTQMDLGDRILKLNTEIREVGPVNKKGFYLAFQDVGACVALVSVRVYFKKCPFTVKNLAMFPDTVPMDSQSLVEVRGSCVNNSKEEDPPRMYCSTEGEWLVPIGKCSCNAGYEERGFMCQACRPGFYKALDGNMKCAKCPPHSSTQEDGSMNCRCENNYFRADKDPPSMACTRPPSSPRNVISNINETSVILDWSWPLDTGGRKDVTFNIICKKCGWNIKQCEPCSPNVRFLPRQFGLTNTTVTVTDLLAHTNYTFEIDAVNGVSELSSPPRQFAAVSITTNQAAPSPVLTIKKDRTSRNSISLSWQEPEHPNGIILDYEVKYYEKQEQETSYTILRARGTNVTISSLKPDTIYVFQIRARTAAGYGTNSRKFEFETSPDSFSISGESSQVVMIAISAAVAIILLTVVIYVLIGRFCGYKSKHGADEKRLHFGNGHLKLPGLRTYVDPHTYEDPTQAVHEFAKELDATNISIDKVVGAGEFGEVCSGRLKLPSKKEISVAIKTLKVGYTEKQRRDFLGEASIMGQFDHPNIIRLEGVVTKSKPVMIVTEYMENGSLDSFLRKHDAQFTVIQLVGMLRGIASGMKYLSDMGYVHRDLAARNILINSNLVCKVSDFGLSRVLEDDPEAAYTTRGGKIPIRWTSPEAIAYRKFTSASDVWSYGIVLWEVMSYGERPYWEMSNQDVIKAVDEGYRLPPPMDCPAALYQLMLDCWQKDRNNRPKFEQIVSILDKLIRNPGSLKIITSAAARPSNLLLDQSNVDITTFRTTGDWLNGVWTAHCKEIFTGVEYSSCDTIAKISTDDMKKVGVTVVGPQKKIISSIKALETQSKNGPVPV

EPHA8 (human) = EPHA8 (human) (UniProt P29322); conditions: compound 1.0 µM; ATP 200 µM
EPHB1 (human) = EPHB1 (human) (UniProt P54762); conditions: compound 1.0 µM; ATP 200 µM
EPHB4 (human) = EPHB4 (human) (UniProt P54760); conditions: compound 1.0 µM; ATP 10 µM
FLT1 (human) = FLT1 (human) (UniProt P17948); conditions: compound 1.0 µM; ATP 200 µM
[3] = tested on: FLT4 (human), P35916 [V1128L/H1146R]; conditions: compound 1.0 µM; ATP 200 µM
[4] = tested on: GSK3A (human), P49840 [S449A]; conditions: compound 1.0 µM; ATP 10 µM
HIPK1 (human) = HIPK1 (human) (UniProt Q86Z02); conditions: compound 1.0 µM; ATP 45 µM
[5] = target: JAK3 JH1 catalytic (human) (UniProt P52333); conditions: compound 1.0 µM; ATP 10 µM
[6] = tested on: KIT (human), P10721 [D816V]; conditions: compound 1.0 µM; ATP 200 µM
LCK (human) = LCK (human) (UniProt P06239); conditions: compound 1.0 µM; ATP 90 µM
Sequence of LCK (human) (P06239 whole entry, looked up): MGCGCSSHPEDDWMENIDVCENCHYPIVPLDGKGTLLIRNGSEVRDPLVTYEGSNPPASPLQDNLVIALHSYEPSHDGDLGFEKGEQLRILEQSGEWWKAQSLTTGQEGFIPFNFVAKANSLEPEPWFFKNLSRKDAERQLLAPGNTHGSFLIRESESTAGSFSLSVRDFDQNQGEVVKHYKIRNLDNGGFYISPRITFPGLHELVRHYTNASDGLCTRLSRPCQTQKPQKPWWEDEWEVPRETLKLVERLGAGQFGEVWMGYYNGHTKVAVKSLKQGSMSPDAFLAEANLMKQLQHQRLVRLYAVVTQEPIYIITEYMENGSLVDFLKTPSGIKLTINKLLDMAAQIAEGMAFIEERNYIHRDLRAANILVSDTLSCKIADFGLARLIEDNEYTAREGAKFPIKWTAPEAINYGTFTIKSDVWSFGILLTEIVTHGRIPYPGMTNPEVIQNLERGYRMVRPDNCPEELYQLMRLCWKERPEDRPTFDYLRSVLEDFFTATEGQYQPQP

LIMK1 (human) = LIMK1 (human) (UniProt P53667); conditions: compound 1.0 µM; ATP 15 µM
MAP3K7 (human) = MAP3K7 (human) (UniProt O43318); conditions: compound 1.0 µM; ATP 45 µM
MAPK10 (human) = MAPK10 (human) (UniProt P53779); conditions: compound 1.0 µM; ATP 10 µM
MAPK11 (human) = MAPK11 (human) (UniProt Q15759); conditions: compound 1.0 µM; ATP 45 µM
MAPK12 (human) = MAPK12 (human) (UniProt P53778); conditions: compound 1.0 µM; ATP 15 µM
MELK (human) = MELK (human) (UniProt Q14680); conditions: compound 1.0 µM; ATP 45 µM
MINK1 (human) = MINK1 (human) (UniProt Q8N4C8); conditions: compound 1.0 µM; ATP 185 µM
MKNK2 (human) = MKNK2 (human) (UniProt Q9HBH9); conditions: compound 1.0 µM; ATP 120 µM
Sequence of MKNK2 (human) (Q9HBH9 whole entry, looked up): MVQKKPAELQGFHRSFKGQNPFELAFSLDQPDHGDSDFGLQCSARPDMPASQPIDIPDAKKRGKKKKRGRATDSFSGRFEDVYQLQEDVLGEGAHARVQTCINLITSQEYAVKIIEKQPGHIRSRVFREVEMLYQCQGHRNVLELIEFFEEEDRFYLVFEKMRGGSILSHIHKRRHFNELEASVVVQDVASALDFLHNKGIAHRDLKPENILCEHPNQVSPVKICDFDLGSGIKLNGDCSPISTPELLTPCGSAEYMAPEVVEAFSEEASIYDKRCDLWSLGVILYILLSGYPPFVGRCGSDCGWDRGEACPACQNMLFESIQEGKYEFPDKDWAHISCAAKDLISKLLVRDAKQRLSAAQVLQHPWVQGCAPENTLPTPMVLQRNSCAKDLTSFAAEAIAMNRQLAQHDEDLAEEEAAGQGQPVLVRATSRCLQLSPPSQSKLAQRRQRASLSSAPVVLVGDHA

NEK2 (human) = NEK2 (human) (UniProt P51955); conditions: compound 1.0 µM; ATP 120 µM
NEK6 (human) = NEK6 (human) (UniProt Q9HC98); conditions: compound 1.0 µM; ATP 45 µM
Sequence of NEK6 (human) (Q9HC98 whole entry, looked up): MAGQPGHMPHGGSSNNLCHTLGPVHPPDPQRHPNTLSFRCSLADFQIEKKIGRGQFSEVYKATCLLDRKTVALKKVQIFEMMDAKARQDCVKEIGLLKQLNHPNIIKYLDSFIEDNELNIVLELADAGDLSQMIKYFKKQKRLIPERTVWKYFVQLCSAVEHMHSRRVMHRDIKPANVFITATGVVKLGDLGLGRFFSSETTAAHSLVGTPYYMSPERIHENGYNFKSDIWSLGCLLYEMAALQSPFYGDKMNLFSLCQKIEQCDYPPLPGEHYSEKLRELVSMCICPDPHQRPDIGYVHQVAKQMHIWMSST

PIM2 (human) = PIM2 (human) (UniProt Q9P1W9); conditions: compound 1.0 µM; ATP 15 µM
PRKCI (human) = PRKCI (human) (UniProt P41743); conditions: compound 1.0 µM; ATP 155 µM
Sequence of PRKCI (human) (P41743 whole entry, looked up): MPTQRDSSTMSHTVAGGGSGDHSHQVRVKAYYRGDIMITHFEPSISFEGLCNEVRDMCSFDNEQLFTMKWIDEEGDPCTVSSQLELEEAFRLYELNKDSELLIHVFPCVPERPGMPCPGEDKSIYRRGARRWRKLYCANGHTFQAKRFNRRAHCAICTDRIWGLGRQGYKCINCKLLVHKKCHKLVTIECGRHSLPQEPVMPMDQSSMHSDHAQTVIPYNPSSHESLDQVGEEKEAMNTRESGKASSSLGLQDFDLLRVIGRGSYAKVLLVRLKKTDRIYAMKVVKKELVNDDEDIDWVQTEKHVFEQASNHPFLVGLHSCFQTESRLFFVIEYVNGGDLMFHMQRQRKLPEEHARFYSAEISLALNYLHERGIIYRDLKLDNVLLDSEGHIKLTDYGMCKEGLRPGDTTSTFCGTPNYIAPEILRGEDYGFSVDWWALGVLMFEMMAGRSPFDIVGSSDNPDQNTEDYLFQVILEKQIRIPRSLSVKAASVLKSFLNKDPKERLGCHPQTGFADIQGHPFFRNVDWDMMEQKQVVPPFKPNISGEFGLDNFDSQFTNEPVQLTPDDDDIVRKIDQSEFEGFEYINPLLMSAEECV

PRKD2 (human) = PRKD2 (human) (UniProt Q9BZL6); conditions: compound 1.0 µM; ATP 155 µM
Sequence of PRKD2 (human) (Q9BZL6 whole entry, looked up): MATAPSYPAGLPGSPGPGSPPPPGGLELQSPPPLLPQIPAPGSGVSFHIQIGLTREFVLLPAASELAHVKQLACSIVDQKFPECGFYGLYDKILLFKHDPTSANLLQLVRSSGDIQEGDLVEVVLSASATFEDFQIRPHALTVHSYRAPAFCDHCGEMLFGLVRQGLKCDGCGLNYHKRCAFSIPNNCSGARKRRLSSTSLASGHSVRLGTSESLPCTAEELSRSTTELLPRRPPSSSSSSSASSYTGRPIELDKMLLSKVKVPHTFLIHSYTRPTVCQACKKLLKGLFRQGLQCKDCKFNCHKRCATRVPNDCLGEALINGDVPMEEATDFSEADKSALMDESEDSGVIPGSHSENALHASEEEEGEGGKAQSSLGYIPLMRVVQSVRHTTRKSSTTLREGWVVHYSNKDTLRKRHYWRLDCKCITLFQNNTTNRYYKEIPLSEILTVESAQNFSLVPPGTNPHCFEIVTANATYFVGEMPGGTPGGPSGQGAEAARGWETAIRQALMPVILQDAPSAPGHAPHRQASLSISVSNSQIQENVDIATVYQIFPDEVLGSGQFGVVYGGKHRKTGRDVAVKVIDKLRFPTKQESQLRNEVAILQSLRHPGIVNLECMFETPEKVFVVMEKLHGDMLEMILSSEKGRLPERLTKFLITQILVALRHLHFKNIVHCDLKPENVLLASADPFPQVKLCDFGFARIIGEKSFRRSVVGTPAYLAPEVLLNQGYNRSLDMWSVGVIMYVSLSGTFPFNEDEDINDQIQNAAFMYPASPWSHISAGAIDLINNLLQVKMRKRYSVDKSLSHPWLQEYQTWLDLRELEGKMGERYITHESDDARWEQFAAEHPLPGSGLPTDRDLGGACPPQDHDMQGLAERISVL

[7] = tested on: RAF1 (human), P04049 [Y340D/Y341D]; conditions: compound 1.0 µM; ATP 45 µM
ROCK1 (human) = ROCK1 (human) (UniProt Q13464); conditions: compound 1.0 µM; ATP 70 µM
SRPK3 (human) = SRPK3 (human) (UniProt Q9UPE1); conditions: compound 1.0 µM; ATP 15 µM
Sequence of SRPK3 (human) (Q9UPE1 whole entry, looked up): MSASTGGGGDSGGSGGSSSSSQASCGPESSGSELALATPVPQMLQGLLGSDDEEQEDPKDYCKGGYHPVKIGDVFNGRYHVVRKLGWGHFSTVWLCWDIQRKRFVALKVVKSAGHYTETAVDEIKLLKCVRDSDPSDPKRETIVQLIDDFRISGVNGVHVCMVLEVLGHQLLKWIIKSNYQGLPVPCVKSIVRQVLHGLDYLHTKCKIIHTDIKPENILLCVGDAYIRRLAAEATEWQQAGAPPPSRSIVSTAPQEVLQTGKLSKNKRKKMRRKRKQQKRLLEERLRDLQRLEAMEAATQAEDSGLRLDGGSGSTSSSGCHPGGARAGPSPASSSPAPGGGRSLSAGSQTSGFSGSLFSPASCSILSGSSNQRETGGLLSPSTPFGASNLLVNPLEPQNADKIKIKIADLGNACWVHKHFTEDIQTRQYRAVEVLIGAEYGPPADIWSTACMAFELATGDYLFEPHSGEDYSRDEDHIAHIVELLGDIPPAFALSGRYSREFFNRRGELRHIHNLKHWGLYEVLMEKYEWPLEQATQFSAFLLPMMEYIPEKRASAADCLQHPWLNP

STK11 (human) = STK11 (human) (UniProt Q15831); conditions: compound 1.0 µM; ATP 155 µM
Sequence of STK11 (human) (Q15831 whole entry, looked up): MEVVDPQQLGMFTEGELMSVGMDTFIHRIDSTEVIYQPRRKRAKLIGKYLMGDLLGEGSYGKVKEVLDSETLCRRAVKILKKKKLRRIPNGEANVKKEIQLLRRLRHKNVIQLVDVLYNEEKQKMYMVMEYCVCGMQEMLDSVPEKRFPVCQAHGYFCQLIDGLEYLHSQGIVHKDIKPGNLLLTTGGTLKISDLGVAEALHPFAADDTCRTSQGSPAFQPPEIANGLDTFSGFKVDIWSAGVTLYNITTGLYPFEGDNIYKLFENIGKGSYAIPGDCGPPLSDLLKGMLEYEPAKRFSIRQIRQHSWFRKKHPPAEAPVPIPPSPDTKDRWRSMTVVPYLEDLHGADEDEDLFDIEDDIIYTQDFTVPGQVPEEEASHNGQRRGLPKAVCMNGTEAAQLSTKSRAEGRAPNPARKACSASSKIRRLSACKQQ

STK3 (human) = STK3 (human) (UniProt Q13188); conditions: compound 1.0 µM; ATP 155 µM

residual activity [1]: 96%
residual activity [2]: 55%
residual activity (CAMK1 (human)): 110%
residual activity (CDK5 CDK5R1 p35 (human)): 93%
residual activity (CDK7 CCNH MNAT1 (human)): 101%
residual activity (CHEK2 (human)): 93%
residual activity (DAPK1 (human)): 90%
residual activity (EPHA1 (human)): 65%
residual activity (EPHA2 (human)): 80%
residual activity (EPHA3 (human)): 96%
residual activity (EPHA8 (human)): 108%
residual activity (EPHB1 (human)): 67%
residual activity (EPHB4 (human)): 103%
residual activity (FLT1 (human)): 5%
residual activity [3]: 10%
residual activity [4]: 86%
residual activity (HIPK1 (human)): 116%
residual activity [5]: 81%
residual activity [6]: 95%
residual activity (LCK (human)): 50%
residual activity (LIMK1 (human)): 72%
residual activity (MAP3K7 (human)): 75%
residual activity (MAPK10 (human)): 53%
residual activity (MAPK11 (human)): 113%
residual activity (MAPK12 (human)): 103%
residual activity (MELK (human)): 38%
residual activity (MINK1 (human)): 105%
residual activity (MKNK2 (human)): 33%
residual activity (NEK2 (human)): 65%
residual activity (NEK6 (human)): 93%
residual activity (PIM2 (human)): 98%
residual activity (PRKCI (human)): 108%
residual activity (PRKD2 (human)): 109%
residual activity [7]: 72%
residual activity (ROCK1 (human)): 107%
residual activity (SRPK3 (human)): 83%
residual activity (STK11 (human)): 134%
residual activity (STK3 (human)): 90%
Structure (SMILES): CN(C)S(=O)(=O)Nc1ccc2ccc3ncc(-c4cnn(C)c4)cc3c(=O)c2c1
